Peptide text beside a SMILES is read from it.
How the values were obtained:
Oxytocin receptor = target: T1, Oxytocin receptor (Rattus norvegicus, UniProt P70536); assay: Biological activity against Oxytocin receptor in rat
T1 sequence (P70536 whole entry): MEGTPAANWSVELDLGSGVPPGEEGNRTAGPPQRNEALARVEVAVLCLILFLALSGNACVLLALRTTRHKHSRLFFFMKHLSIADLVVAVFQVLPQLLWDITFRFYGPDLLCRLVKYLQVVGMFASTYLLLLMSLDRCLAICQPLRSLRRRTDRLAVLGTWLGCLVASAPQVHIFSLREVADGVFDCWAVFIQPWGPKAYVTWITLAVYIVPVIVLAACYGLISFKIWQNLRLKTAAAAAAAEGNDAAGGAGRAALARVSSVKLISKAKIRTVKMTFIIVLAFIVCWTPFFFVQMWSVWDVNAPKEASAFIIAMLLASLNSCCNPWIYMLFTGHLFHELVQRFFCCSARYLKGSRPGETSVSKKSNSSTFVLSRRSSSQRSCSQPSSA

[1] = Bitter tasting threshold was expressed as log 1/T.; type: functional
[2] = target: Angiotensin-converting enzyme (Homo sapiens, UniProt P12821); assay: Biological activity was measured against Angiotensin I converting enzyme; conditions: read-out: Log 1/IC50 (converted)
Chain of Angiotensin-converting enzyme (P12821 whole entry): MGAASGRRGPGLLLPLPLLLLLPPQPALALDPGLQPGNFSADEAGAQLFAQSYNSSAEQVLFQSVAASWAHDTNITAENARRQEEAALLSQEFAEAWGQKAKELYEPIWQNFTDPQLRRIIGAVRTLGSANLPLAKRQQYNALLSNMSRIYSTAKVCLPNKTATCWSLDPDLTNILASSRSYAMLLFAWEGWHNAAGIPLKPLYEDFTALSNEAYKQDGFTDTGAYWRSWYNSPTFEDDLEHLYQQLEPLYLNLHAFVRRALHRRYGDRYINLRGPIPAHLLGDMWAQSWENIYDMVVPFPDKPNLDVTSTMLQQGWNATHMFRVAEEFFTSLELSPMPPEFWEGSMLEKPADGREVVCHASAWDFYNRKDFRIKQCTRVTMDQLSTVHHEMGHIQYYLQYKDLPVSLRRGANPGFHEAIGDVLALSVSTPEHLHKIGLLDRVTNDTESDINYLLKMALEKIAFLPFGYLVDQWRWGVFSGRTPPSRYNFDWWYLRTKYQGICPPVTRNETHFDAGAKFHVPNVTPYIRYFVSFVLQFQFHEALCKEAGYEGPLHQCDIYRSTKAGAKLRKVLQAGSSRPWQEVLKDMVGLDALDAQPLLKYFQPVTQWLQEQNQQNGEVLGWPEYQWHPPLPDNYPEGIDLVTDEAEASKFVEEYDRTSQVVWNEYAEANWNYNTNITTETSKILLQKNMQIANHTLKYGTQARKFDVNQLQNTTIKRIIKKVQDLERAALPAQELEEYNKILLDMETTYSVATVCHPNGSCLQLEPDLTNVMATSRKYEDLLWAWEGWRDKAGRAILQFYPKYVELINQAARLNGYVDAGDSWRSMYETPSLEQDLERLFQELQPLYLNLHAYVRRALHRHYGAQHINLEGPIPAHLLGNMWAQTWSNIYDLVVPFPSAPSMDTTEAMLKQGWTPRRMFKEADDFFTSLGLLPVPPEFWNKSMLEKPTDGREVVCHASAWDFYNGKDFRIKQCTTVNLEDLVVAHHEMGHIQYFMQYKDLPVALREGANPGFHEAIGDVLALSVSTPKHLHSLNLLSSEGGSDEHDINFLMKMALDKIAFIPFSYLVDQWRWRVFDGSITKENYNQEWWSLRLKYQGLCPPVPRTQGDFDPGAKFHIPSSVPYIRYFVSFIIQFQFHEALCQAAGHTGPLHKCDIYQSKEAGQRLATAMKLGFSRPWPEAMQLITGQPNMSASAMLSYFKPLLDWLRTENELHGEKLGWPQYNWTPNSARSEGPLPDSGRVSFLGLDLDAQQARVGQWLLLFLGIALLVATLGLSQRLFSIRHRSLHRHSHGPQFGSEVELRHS

Substance-K receptor [3] = target: T2, Substance-K receptor (Oryctolagus cuniculus, UniProt P79218); assay: Antagonist activity against Tachykinin receptor 2 was measured by Rabbit pulmonary artery(RPA) assay.; type: functional; conditions: read-out: pA2 (converted)
T2 sequence (P79218 whole entry): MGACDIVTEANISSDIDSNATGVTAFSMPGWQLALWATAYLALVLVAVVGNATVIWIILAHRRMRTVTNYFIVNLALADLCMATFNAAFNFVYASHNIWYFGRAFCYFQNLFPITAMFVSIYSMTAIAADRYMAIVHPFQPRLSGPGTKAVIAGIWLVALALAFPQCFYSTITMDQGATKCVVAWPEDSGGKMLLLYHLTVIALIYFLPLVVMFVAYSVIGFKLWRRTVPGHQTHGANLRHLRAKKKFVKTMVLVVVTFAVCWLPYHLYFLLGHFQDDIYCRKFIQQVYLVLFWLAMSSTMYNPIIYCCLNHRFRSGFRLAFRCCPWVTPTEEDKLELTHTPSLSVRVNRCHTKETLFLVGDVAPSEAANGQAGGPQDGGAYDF

Substance-K receptor [4] = target: T3, Substance-K receptor (Mesocricetus auratus, UniProt P51144); assay: Antagonist activity against Tachykinin receptor 2 was measured by Hamster isolated trachea(HT) assay.; type: functional, tissue-based; conditions: read-out: pA2 (converted)
T3 sequence (P51144 whole entry): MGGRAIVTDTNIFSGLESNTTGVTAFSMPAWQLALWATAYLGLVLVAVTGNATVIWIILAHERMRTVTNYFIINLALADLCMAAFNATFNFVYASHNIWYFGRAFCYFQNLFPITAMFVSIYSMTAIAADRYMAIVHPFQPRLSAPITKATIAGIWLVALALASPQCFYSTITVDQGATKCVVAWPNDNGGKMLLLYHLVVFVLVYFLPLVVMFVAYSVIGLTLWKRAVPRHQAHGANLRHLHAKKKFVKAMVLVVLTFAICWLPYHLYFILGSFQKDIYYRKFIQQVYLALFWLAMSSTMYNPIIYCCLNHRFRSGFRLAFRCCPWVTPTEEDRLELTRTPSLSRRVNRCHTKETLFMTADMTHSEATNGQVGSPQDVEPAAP

Substance-K receptor [5] = target: T4, Substance-K receptor (Rattus norvegicus, UniProt P16610); assay: Antagonism against Tachykinin receptor 2 in rat vas deferens(RVD); type: functional; conditions: read-out: pA2 (converted)
T4 sequence (P16610 whole entry): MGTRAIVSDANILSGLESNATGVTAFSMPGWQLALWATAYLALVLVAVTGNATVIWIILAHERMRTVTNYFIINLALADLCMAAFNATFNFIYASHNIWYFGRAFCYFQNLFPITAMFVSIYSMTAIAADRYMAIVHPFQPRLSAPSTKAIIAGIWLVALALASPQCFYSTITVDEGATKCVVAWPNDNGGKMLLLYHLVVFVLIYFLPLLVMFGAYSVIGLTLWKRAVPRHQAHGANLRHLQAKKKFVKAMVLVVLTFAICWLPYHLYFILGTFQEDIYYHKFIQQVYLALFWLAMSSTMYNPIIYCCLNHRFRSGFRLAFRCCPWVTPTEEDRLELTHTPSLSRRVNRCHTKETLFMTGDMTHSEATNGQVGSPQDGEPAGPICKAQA

Row | Compound | pA2 (Oxytocin receptor) | IC50 [2] | Kb (Substance-K receptor [3]) | Kb (Substance-K receptor [4]) | Kb (Substance-K receptor [5]) | Log 1/T [1]
1 | CCC(C)[C@H](NC(=O)[C@@H](N)[C@@H](C)CC)C(=O)O (single isomer, unassigned) | – | – | – | – | – | 2.26
2 | C[C@H](N)C(=O)N[C@@H](Cc1ccccc1)C(=O)O | – | 191 µM | – | – | – | 1.72
3 | CC(C)[C@H](NC(=O)[C@@H](Cc1c[nH]c2ccccc12)NC(=O)[C@H](Cc1ccc(O)cc1)NC(=O)[C@@H](N)CC(=O)O)C(=O)N[C@H](Cc1c[nH]c2ccccc12)C(=O)N[C@H](Cc1c[nH]c2ccccc12)C(=O)N[C@@H](CCC(=O)O)C(=O)O | – | – | 2.63 µM | 0.427 µM | 0.0309 µM | –
4 | CC(C)[C@@H](NC(=O)[C@@H](Cc1c[nH]c2ccccc12)NC(=O)[C@@H](Cc1ccc(O)cc1)NC(=O)[C@@H](N)CC(=O)O)C(=O)NCC(=O)N[C@H](Cc1c[nH]c2ccccc12)C(=O)N[C@H](CCCN=C(N)N)C(=O)O | – | – | 0.263 µM | 0.562 µM | 0.38 µM | –
5 | CC[C@H](C)[C@H](N)C(=O)N[C@H](C(=O)O)C(C)O (single isomer, unassigned) | – | – | – | – | – | 1.49
6 | CSCC[C@H](NC(=O)[C@H](CC(C)C)NC(=O)CNC(=O)[C@@H](Cc1c[nH]c2ccccc12)NC(=O)[C@H](Cc1ccccc1)NC(=O)[C@H](Cc1ccc(O)cc1)NC(=O)[C@@H](N)CC(=O)O)C(=O)O | – | – | 100 µM | 14.8 µM | 14.1 µM | –
7 | CSCC[C@H](NC(=O)[C@@H](Cc1c[nH]c2ccccc12)NC(=O)[C@@H](Cc1c[nH]c2ccccc12)NC(=O)[C@@H](NC(=O)[C@@H](Cc1c[nH]c2ccccc12)NC(=O)[C@H](Cc1ccc(O)cc1)NC(=O)[C@@H](N)CC(=O)O)C(C)C)C(=O)O | – | – | 0.0891 µM | 1.45 µM | 0.38 µM | –
8 | H-DYYVYYR-OH | – | – | 100 µM | 100 µM | 9.33 µM | –
9 | CC(C)[C@H](NC(=O)[C@@H](Cc1c[nH]c2ccccc12)NC(=O)[C@H](Cc1ccc(O)cc1)NC(=O)[C@@H](N)CC(=O)O)C(=O)NCC(=O)N[C@H](Cc1c[nH]c2ccccc12)C(=O)N[C@@H](CCCN=C(N)N)C(=O)O | – | – | 19.5 µM | 6.31 µM | 18.6 µM | –
10 | CC(C)[C@H](NC(=O)[C@H](Cc1c[nH]c2ccccc12)NC(=O)[C@H](Cc1ccc(O)cc1)NC(=O)[C@@H](N)CC(=O)O)C(=O)N[C@H](Cc1c[nH]c2ccccc12)C(=O)N[C@H](Cc1c[nH]c2ccccc12)C(=O)N[C@@H](CCCN=C(N)N)C(=O)O | – | – | 100 µM | 15.5 µM | 25.7 µM | –
11 | CSCC[C@H](NC(=O)[C@@H](Cc1c[nH]c2ccccc12)NC(=O)[C@@H](Cc1c[nH]c2ccccc12)NC(=O)[C@@H](NC(=O)[C@@H](Cc1c[nH]c2ccccc12)NC(=O)[C@H](CO)NC(=O)[C@@H](N)CC(=O)O)C(C)C)C(=O)O | – | – | 4.79 µM | 6.46 µM | 1.95 µM | –
12 | CC(C)C[C@H](NC(=O)[C@@H](Cc1c[nH]c2ccccc12)NC(=O)[C@@H](Cc1c[nH]c2ccccc12)NC(=O)[C@@H](NC(=O)[C@@H](Cc1c[nH]c2ccccc12)NC(=O)[C@H](Cc1ccc(O)cc1)NC(=O)[C@@H](N)CC(=O)O)C(C)C)C(=O)O | – | – | 1.62 µM | 1.2 µM | 0.0794 µM | –
13 | CC[C@H](C)[C@@H]1NC(=O)[C@@H](Cc2c[nH]c3ccccc23)NC(=O)CC2(CCCCC2)SSC(C)(C)[C@H](C(=O)N2CCC[C@H]2C(=O)N[C@@H](CCCN=C(N)N)C(=O)NCC(N)=O)NC(=O)[C@H](CC(N)=O)NC(=O)[C@H](CCC(=O)O)NC1=O | 7.98 | – | – | – | – | –
14 | CC(C)[C@@H](NC(=O)[C@@H](Cc1c[nH]c2ccccc12)NC(=O)[C@@H](Cc1ccc(O)cc1)NC(=O)[C@@H](N)CC(=O)O)C(=O)N[C@H](Cc1c[nH]c2ccccc12)C(=O)N[C@H](Cc1c[nH]c2ccccc12)C(=O)N[C@H](CCCN=C(N)N)C(=O)O | – | – | 0.407 µM | 1.1 µM | 0.851 µM | –
15 | CC(C)C[C@H](NC(=O)[C@@H](N)C(C)C)C(=O)O (H-Val-Leu-OH) | – | – | – | – | – | 2

Now from value to compound, other results behind:

Row | pA2 (Oxytocin receptor) | IC50 [2] | Kb (Substance-K receptor [3]) | Kb (Substance-K receptor [4]) | Kb (Substance-K receptor [5]) | Compound | Log 1/T [1]
16 | 5.51 | – | – | – | – | CC[C@H](C)[C@H](NC(=O)[C@@H](Cc1c[nH]c2ccccc12)NC(=O)CC1(S)CCCCC1)C(=O)N[C@H](CCCNC(N)=O)C(=O)N[C@@H](CC(N)=O)C(=O)N[C@@H](CS)C(=O)N1CCC[C@H]1C(=O)N[C@@H](CCCN=C(N)N)C(=O)NCC(N)=O | –
17 | 5.41 | – | – | – | – | CC[C@H](C)[C@H](NC(=O)[C@@H](Cc1c[nH]c2ccccc12)NC(=O)CC1(S)CCCCC1)C(=O)N[C@H](CC(N)=O)C(=O)N[C@@H](CC(N)=O)C(=O)N[C@@H](CS)C(=O)N1CCC[C@H]1C(=O)N[C@@H](CCCN=C(N)N)C(=O)NCC(N)=O | –
18 | – | 631 µM | – | – | – | NCC(=O)N[C@@H](Cc1ccccc1)C(=O)O (H-Gly-Phe-OH) | 1.8
19 | – | – | 12.9 µM | 17.4 µM | 4.37 µM | H-DYPVWWR-OH | –
20 | – | – | 1.48 µM | 0.141 µM | 0.0347 µM | CC(C)[C@H](NC(=O)[C@@H](Cc1c[nH]c2ccccc12)NC(=O)[C@H](Cc1ccc(O)cc1)NC(=O)[C@@H](N)CC(=O)O)C(=O)N[C@H](Cc1c[nH]c2ccccc12)C(=O)N[C@H](Cc1c[nH]c2ccccc12)C(=O)NCC(=O)O | –
21 | – | – | 0.0646 µM | 1.17 µM | 0.347 µM | CC(C)[C@H](NC(=O)[C@@H](Cc1c[nH]c2ccccc12)NC(=O)[C@H](Cc1ccc(O)cc1)NC(=O)[C@@H](N)CC(N)=O)C(=O)N[C@H](Cc1c[nH]c2ccccc12)C(=O)N[C@H](Cc1c[nH]c2ccccc12)C(=O)N[C@@H](CCCN=C(N)N)C(=O)O | –
22 | – | – | 5.89 µM | 9.12 µM | 7.76 µM | CSCC[C@H](NC(=O)[C@H](CC(C)C)NC(=O)CNC(=O)[C@@H](Cc1c[nH]c2ccccc12)NC(=O)[C@H](Cc1ccccc1)NC(=O)[C@@H](Cc1c[nH]c2ccccc12)NC(=O)[C@@H](N)CC(=O)O)C(=O)O | –
23 | – | – | 100 µM | 1.74 µM | 0.191 µM | CC(C)[C@H](NC(=O)[C@@H](Cc1c[nH]c2ccccc12)NC(=O)[C@H](Cc1ccc(O)cc1)NC(=O)[C@@H](N)CC(=O)O)C(=O)N[C@H](Cc1c[nH]c2ccccc12)C(=O)N[C@H](Cc1c[nH]c2ccccc12)C(=O)N[C@@H](Cc1ccc(O)cc1)C(=O)O | –
24 | 5.24 | – | – | – | – | CC[C@H](C)[C@H](NC(=O)[C@@H](Cc1c[nH]c2ccccc12)NC(=O)CC1(S)CCCCC1)C(=O)N[C@H](CCC(N)=O)C(=O)N[C@@H](CC(N)=O)C(=O)N[C@@H](CS)C(=O)N1CCC[C@H]1C(=O)N[C@@H](CCCN=C(N)N)C(=O)NCC(N)=O | –
25 | – | – | 6.31 µM | 11.2 µM | 0.339 µM | CC(C)[C@H](NC(=O)[C@@H](Cc1c[nH]c2ccccc12)NC(=O)[C@H](Cc1c[nH]c2ccccc12)NC(=O)[C@@H](N)CC(=O)O)C(=O)N[C@H](Cc1c[nH]c2ccccc12)C(=O)N[C@H](Cc1c[nH]c2ccccc12)C(=O)N[C@@H](CCCN=C(N)N)C(=O)O | –
26 | – | – | 0.0224 µM | 1.58 µM | 0.251 µM | CC(C)[C@H](NC(=O)[C@@H](Cc1c[nH]c2ccccc12)NC(=O)[C@H](Cc1ccc(O)cc1)NC(=O)[C@@H](N)CC(=O)O)C(=O)N[C@H](Cc1c[nH]c2ccccc12)C(=O)N[C@H](Cc1c[nH]c2ccccc12)C(=O)N[C@@H](CCCN=C(N)N)C(=O)O | –
27 | – | – | 1.62 µM | 1.38 µM | 0.155 µM | CC(C)[C@H](NC(=O)[C@@H](Cc1c[nH]c2ccccc12)NC(=O)[C@H](Cc1ccc(O)cc1)NC(=O)[C@@H](N)CC(=O)O)C(=O)N[C@H](Cc1c[nH]c2ccccc12)C(=O)N[C@H](Cc1c[nH]c2ccccc12)C(=O)N[C@H](Cc1c[nH]c2ccccc12)C(=O)O | –
28 | – | 2510 µM | – | – | – | CC(C)C[C@H](NC(=O)CN)C(=O)O | 1.68
